# In US12343326B2, “Psychoactive medicines and their use for treating psychiatric and neurological conditions and disorders” (Transcend Therapeutics, Inc., priority 2021, dated 2025):
# Marks after values point to notes of the source that are not given here.
# Columns and labels:
# [1] = system: patients with PTSD or MDD; experiment: Methylone case series, Cohort 2: CGI-S/CGI-I efficacy and safety; format: in vivo, human
# Description: CGI-S scale was also evaluated in a subset of patients from Cohort 2 post-treatment. Cohort 2 was evaluated for any observed or reported safety events following a single dosing session. Clinical Global Improvement Scale
# Clinical Global Impressions (CGI) scale includes 2 components: CGI-S (“severity”) and CGI-I (“improvement”).
# Cohort 2 is composed of 28 patients with PTSD or MDD treated in an outpatient setting.
# Only sessions that included methylone dosing were counted as dosing sessions.
# Single sessions occurred for 8 of the 28 cases with no booster in two of these cases. In the remainder of the cases, multiple sessions occurred, and booster doses were used in all or some of the remaining patients ([…]) with multiple booster doses used in some or all of the sessions in 15 patients.
# mice = experiment: Mouse fear extinction paradigm (PTSD model); format: in vivo; details: methylone 30 mg/kg IP; day 3
# Text: Effective PTSD treatments facilitate the disassociation between a traumatic memory and the patient's fear response, making cues for the traumatic memory evoke less of a fear response. This is modeled in the mouse fear extinction paradigm (see FIG. 9A) which takes place over 3 days. On day 1 (fear conditioning), mice are trained to acquire a “traumatic memory,” namely associating the conditioned stimulus (CS, tone) to the unconditioned stimulus (US, foot shock). On day 2 (extinction training), they are trained to forget the traumatic memory association by presenting the CS 6 times (with no US) in a novel environment. On day 3 (extinction recall), the mice are “asked” if that tone (CS) still elicits a fearful response, as measured by the time spent freezing when the tone is presented. Less time freezing means better extinction recall. Drugs that improve extinction recall reduce freezing time on day 3, and, therefore, show potential as a PTSD treatment.
# C57BL/6J mice = experiment: Cued fear conditioning, extinction training and recall (Example 35); format: in vivo, mouse
# Description: Methods: Cued fear conditioning was performed in C57BL/6J mice. On day 1, animals were placed in the chambers and presented with a training session (CS-US pairing). The training consisted of a 2-minute habituation followed by a 30-second, 80 dB tone; during the last 2 seconds of the tone animals received a 1 mA foot shock. This US-CS procedure occurred once for a total of one paired presentation of tone and shock. Freezing behavior (immobility) was recorded in 5-10-sec intervals during the session. Percent baseline freezing behavior was determined in the 2-minute habituation period. On day 3, animals were placed in context B, in which tactile and odor cues differed from context A. Following a 2 minute acclimation period animals received 4×30 sec presentations of the CS (tone) in the absence of the US (footshock), with a 45 sec interval between presentations. Freezing was recorded in 5-10-sec intervals to measure baseline freezing response to the altered context, and freezing response to each tone cue presentation. […] Freezing was recorded in 5-10-sec intervals to measure baseline freezing response to the altered context, and freezing response to each tone cue presentation.
# 168 GPCRs = experiment: β-arrestin based GPCR screen (PathHunter / GPCRmax), agonist mode; format: cell-based
# Description: For agonist determination, cells were incubated with sample to induce response. […] Vehicle concentration was 1%.
# 5HT5A = target: T1, 5HT5A (Homo sapiens, UniProt P47898); experiment: GPCRmax screen, agonist mode; format: cell-based
# T1 construct: beta-galactosidase enzyme fragment (PathHunter complementation tag); host or cells: PathHunter cell lines
# T1 sequence (P47898 whole entry, the tested form may be a part): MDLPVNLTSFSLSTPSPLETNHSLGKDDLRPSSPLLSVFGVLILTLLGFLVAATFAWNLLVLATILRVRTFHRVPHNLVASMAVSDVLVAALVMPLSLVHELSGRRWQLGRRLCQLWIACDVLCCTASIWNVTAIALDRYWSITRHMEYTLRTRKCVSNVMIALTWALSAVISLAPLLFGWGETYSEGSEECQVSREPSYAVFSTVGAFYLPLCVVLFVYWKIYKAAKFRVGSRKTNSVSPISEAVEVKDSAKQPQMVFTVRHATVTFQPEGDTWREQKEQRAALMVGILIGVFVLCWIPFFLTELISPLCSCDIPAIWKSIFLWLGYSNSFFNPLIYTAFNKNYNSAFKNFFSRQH
# [2] = system: rats with reserpine-induced pain sensitivity; experiment: Reserpine-induced fibromyalgia model, von Frey test; format: in vivo, rat; details: methylone 15 mg/kg IP, 30 min before testing, day 4 after reserpine
# Description: Reserpine (1 mg/kg/s.c.) is administered for 3 days to mimic chronic widespread pain and complex symptoms.
# In this Example, male Sprague Dawley rats are tested in a behavioral model of FMA based on the protocol from Nakagura et al. (2009) Pain 146:26. This model uses three daily doses of reserpine (1 mg/kg, SC) or 0.5% acetic acid vehicle to reduce pain thresholds (i.e., increase pain perception) in the Von Frey Test (vFT, procedure outlined below).
# Von Frey Test (vFT) procedure: Increasing pain thresholds in this test are consistent with a reduction in pain perception. Prior to the start of dosing, rats are tested for their baseline mechanical pain threshold. For von Frey measurements, animals are placed into wire bottom cubicles with opaque Plexiglas walls, allowing access to the underside of their paws. Animals are habituated to this environment for at least 30 minutes before the start of the von Frey filament application. Static allodynia is measured using Semmes-Weinstein von Frey filaments (Stoelting, Wood Dale, IL). Mechanical allodynia is tested by touching the plantar surface of the animals' left and right hind paws with von Frey filaments which deliver a calibrated amount of force. Each von Frey filament is presented perpendicularly to the plantar surface for approximately 6 seconds of constant application in either ascending or descending strength in a modified up-and-down method (Chaplan et al. (1994) J Neurosci. Meth. 53:55). Stimulation is presented at intervals of several seconds, allowing for apparent resolution of any behavioral responses to previous stimuli. A positive response is noted if the paw is sharply withdrawn. Flinching immediately upon removal of the hair is also considered a positive response. […]
# VonFrey measurements: Animals were placed into wire bottom cubicles with opaque Plexiglas walls, allowing access to the underside of their paws. […] Static allodynia was measured using Semmes-Weinstein von Frey filaments (Stoelting, Wood Dale, IL). […] The average hindpaw thresholds were determined 60-min post-injection. […]
# [3] = Cohort 2, N = 28, highest observed
smiles,measurement,setting,value
"CNC(C)C(=O)c1ccc2c(c1)OCO2 (centres unmarked) [methylone, 3,4-methylenedioxy-N-methylcathinone]",Magnitude of Improvement: Number of cases with CGI-I 1,[1]; [3],11* cases
same,Magnitude of Improvement: Number of cases with CGI-I 2,[1]; [3],13 cases
same,Magnitude of Improvement: Number of cases with CGI-I 3,[1]; [3],4 cases
same,Magnitude of Improvement: Number of cases with CGI-I 4,[1]; [3],0 cases
same,Magnitude of Improvement: Number of cases with CGI-I 5,[1]; [3],0 cases
same,Magnitude of Improvement: Number of cases with CGI-I 6,[1]; [3],0 cases
same,Magnitude of Improvement: Number of cases with CGI-I 7,[1]; [3],0 cases
same,number of patients with adverse events following methylone dosing,"[1]; Cohort 2, N = 28, all ≥65 years of age",3 patients
same,locomotion during testing session,mice,no differences between groups in locomotion
same,fear extinction training on day 3,"C57BL/6J mice; all doses: 10, 20 or 30 mg/kg IP",significantly improved fear extinction training
same,effect on fear extinction training and testing,C57BL/6J mice; methylone 30 mg/kg IP 30 min before extinction training on Day 3,"rapid, robust and long-lasting beneficial effect"
same,agonist activity at any of the 168 GPCRs (criterion >30% activity),168 GPCRs; 1 and 10 micromolar,did not meet criteria for agonist or antagonist activity
same,% Activity,"168 GPCRs; DRD2S, Agonist mode, 10 uM",0.6%
same,% Activity,"168 GPCRs; DRD2S, Agonist, 1 uM",0%
same,% Activity,"168 GPCRs; NPSR1b, Agonist mode, 10 uM",4.8%
same,% Activity,"168 GPCRs; NPSR1b, Agonist, 1 uM",−1.3%
same,"agonist % activity, greatest activity detected","5HT5A; 1 or 10 mM, threshold 30%",13.9%
same,activity at 10 µM,"5HT5A; HTR5A, Agonist mode, 10 uM",13.9%
same,activity at 1 µM,"5HT5A; HTR5A, Agonist, 1 uM",13.6%
same,paw withdrawal thresholds (von Frey),[2],significantly increased paw withdrawal thresholds
